Test results taken from ChEMBL document CHEMBL4507295 (2021).

What was measured:
[1] = biological target: Calcium/calmodulin-dependent protein kinase type 1 (Homo sapiens) (UniProt Q14012); settings: Compound concentration 1000.0 nM
[2] = biological target: Cyclin-dependent kinase 13 (Homo sapiens) (UniProt Q14004); settings: Compound concentration 1000.0 nM
[3] = biological target: Cyclin-dependent kinase 2 (Homo sapiens) (UniProt P24941); settings: Compound concentration 1000.0 nM
[4] = biological target: Cyclin-dependent kinase-like 5 (Homo sapiens) (UniProt O76039); settings: Compound concentration 1000.0 nM
[5] = biological target: Death-associated protein kinase 1 (Homo sapiens) (UniProt P53355); settings: Compound concentration 1000.0 nM
[6] = system: Epidermal growth factor receptor (Homo sapiens), P00533 [L858R,T790M]; settings: Compound concentration 1000.0 nM
[7] = biological target: Ephrin type-A receptor 7 (Homo sapiens) (UniProt Q15375); settings: Compound concentration 1000.0 nM
[8] = biological target: Beta-adrenergic receptor kinase 1 (Homo sapiens) (UniProt P25098); settings: Compound concentration 1000.0 nM
[9] = biological target: Rhodopsin kinase GRK7 (Homo sapiens) (UniProt Q8WTQ7); settings: Compound concentration 1000.0 nM
[10] = biological target: Glycogen synthase kinase-3 alpha (Homo sapiens) (UniProt P49840); settings: Compound concentration 1000.0 nM
[11] = biological target: Interleukin-1 receptor-associated kinase 3 (Homo sapiens) (UniProt Q9Y616); settings: Compound concentration 1000.0 nM
[12] = biological target: Mitogen-activated protein kinase 10 (Homo sapiens) (UniProt P53779); settings: Compound concentration 1000.0 nM
[13] = system: Mast/stem cell growth factor receptor Kit (Homo sapiens), P10721 [V559D,T670I]; settings: Compound concentration 1000.0 nM
[14] = system: Mast/stem cell growth factor receptor Kit (Homo sapiens), P10721 [V559D,V654A]; settings: Compound concentration 1000.0 nM
[15] = biological target: LIM domain kinase 2 (Homo sapiens) (UniProt P53671); settings: Compound concentration 1000.0 nM
[16] = biological target: Tyrosine-protein kinase Mer (Homo sapiens) (UniProt Q12866); settings: Compound concentration 1000.0 nM
[17] = biological target: Hepatocyte growth factor receptor (Homo sapiens) (UniProt P08581); settings: Compound concentration 1000.0 nM
[18] = biological target: Dual specificity mitogen-activated protein kinase kinase 7 (Homo sapiens) (UniProt O14733); settings: Compound concentration 1000.0 nM
[19] = biological target: Myosin light chain kinase 2, skeletal/cardiac muscle (Homo sapiens) (UniProt Q9H1R3); settings: Compound concentration 1000.0 nM
[20] = biological target: Serine/threonine-protein kinase 38-like (Homo sapiens) (UniProt Q9Y2H1); settings: Compound concentration 1000.0 nM
[21] = biological target: Serine/threonine-protein kinase Nek2 (Homo sapiens) (UniProt P51955); settings: Compound concentration 1000.0 nM
[22] = biological target: Serine/threonine-protein kinase Nek9 (Homo sapiens) (UniProt Q8TD19); settings: Compound concentration 1000.0 nM
[23] = biological target: cAMP-dependent protein kinase catalytic subunit beta (Homo sapiens) (UniProt P22694); settings: Compound concentration 1000.0 nM
[24] = biological target: Serine/threonine-protein kinase RIO1 (Homo sapiens) (UniProt Q9BRS2); settings: Compound concentration 1000.0 nM
[25] = biological target: Dual serine/threonine and tyrosine protein kinase (Homo sapiens) (UniProt Q6XUX3); settings: Compound concentration 1000.0 nM
[26] = biological target: Ribosomal protein S6 kinase alpha-5 (Homo sapiens) (UniProt O75582); settings: Compound concentration 1000.0 nM
[27] = biological target: SRSF protein kinase 2 (Homo sapiens) (UniProt P78362); settings: Compound concentration 1000.0 nM
[28] = biological target: Non-receptor tyrosine-protein kinase TNK1 (Homo sapiens) (UniProt Q13470); settings: Compound concentration 1000.0 nM
[29] = biological target: T1, D(4) dopamine receptor (Homo sapiens) (UniProt P21917); settings: Compound concentration 10.0 uM
T1 sequence (whole entry): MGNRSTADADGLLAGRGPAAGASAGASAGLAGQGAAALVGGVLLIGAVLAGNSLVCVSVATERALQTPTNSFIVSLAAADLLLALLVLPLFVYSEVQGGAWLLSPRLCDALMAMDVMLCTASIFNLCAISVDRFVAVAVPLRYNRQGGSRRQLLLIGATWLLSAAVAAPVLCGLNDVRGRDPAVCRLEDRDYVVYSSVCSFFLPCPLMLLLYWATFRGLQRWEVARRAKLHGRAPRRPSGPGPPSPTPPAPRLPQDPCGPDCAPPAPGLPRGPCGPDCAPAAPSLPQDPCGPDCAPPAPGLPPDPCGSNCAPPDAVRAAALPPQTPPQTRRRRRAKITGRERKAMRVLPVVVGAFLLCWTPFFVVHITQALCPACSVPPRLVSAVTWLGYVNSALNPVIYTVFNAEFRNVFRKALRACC

[30] = biological target: Sodium-dependent noradrenaline transporter (Homo sapiens) (UniProt P23975); settings: Compound concentration 10.0 uM
[31] = biological target: Beta-1 adrenergic receptor (Homo sapiens) (UniProt P08588); settings: Compound concentration 10.0 uM
[32] = biological target: T2, Muscarinic acetylcholine receptor M5 (Homo sapiens) (UniProt P08912); settings: Compound concentration 10.0 uM
T2 sequence (whole entry): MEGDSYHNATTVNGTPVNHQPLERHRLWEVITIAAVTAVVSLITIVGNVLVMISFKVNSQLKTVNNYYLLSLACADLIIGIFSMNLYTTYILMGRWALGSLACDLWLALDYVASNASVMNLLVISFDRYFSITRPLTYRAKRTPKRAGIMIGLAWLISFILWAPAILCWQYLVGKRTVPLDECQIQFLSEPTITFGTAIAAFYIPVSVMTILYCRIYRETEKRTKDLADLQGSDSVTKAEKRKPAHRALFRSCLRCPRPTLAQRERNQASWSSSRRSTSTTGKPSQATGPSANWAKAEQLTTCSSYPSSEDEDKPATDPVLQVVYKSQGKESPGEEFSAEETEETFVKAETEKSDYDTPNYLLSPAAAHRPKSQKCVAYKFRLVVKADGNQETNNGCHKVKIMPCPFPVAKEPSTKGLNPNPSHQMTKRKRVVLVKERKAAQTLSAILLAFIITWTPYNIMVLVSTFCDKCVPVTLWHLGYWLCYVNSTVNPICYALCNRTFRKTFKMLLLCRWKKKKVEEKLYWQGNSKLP

Chain of Dual serine/threonine and tyrosine protein kinase (Homo sapiens) (Q6XUX3 whole entry): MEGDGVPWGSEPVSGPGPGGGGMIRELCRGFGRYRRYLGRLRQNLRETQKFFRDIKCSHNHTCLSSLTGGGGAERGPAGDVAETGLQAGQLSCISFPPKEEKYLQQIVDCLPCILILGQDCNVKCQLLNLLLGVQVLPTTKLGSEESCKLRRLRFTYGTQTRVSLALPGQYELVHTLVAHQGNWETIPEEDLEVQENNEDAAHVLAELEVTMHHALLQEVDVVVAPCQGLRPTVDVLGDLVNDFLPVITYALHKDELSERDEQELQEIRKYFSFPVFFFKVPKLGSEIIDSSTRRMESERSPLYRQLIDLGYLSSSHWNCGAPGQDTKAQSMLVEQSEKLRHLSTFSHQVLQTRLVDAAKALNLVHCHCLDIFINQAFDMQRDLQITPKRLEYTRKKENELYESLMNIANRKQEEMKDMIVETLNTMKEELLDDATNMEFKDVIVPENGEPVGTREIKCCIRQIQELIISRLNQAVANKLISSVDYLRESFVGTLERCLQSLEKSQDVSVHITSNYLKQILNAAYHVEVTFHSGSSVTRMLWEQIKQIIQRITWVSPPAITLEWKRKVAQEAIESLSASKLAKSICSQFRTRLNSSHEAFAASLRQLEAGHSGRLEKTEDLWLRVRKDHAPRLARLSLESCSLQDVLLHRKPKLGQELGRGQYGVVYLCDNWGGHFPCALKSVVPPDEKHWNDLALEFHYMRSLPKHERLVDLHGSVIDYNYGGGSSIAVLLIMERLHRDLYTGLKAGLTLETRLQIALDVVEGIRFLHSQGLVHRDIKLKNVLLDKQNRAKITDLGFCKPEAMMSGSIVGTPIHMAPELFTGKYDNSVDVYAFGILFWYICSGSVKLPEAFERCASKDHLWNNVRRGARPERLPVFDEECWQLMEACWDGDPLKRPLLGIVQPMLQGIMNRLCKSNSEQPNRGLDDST
Chain of Glycogen synthase kinase-3 alpha (Homo sapiens) (P49840 2-483 limits assumed): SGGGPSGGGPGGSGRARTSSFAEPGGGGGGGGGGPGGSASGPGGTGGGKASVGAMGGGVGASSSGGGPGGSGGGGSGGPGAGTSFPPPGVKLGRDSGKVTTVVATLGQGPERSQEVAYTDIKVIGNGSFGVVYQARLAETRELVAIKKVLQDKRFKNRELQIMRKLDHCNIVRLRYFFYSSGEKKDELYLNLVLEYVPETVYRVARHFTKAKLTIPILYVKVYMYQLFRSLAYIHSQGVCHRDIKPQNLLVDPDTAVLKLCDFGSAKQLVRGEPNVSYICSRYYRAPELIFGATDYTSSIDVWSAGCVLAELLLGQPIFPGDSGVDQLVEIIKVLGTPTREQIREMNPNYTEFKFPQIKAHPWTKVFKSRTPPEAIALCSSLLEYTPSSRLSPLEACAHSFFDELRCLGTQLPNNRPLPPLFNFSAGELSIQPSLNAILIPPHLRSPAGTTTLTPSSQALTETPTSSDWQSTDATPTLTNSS
Chain of Serine/threonine-protein kinase Nek9 (Homo sapiens) (Q8TD19 whole entry): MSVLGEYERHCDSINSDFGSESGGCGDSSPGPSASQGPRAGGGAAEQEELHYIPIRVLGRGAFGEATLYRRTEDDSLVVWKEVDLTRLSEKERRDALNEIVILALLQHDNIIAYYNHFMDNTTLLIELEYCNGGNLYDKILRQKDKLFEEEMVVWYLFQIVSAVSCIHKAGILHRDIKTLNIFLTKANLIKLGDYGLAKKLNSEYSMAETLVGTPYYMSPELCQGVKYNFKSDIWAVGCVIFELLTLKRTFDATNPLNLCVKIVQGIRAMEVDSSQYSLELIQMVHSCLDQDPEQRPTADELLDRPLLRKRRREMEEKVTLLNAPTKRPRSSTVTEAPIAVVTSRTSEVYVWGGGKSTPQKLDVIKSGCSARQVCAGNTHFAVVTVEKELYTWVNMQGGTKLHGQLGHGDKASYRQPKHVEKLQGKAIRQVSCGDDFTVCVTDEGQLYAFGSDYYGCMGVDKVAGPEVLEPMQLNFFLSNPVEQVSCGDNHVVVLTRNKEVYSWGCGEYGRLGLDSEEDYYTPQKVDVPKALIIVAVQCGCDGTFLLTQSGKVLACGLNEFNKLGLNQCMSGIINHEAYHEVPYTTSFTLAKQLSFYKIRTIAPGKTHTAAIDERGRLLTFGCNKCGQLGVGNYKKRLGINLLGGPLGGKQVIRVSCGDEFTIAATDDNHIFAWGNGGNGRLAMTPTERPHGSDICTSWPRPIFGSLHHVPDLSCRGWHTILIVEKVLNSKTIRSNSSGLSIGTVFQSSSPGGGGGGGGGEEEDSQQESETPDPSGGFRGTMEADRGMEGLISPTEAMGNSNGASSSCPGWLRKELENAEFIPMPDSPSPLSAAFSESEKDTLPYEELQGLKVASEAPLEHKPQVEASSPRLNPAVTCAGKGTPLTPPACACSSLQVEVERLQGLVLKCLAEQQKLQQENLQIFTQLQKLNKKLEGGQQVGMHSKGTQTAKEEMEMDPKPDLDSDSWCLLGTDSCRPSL
Chain of SRSF protein kinase 2 (Homo sapiens) (P78362 whole entry, looked up): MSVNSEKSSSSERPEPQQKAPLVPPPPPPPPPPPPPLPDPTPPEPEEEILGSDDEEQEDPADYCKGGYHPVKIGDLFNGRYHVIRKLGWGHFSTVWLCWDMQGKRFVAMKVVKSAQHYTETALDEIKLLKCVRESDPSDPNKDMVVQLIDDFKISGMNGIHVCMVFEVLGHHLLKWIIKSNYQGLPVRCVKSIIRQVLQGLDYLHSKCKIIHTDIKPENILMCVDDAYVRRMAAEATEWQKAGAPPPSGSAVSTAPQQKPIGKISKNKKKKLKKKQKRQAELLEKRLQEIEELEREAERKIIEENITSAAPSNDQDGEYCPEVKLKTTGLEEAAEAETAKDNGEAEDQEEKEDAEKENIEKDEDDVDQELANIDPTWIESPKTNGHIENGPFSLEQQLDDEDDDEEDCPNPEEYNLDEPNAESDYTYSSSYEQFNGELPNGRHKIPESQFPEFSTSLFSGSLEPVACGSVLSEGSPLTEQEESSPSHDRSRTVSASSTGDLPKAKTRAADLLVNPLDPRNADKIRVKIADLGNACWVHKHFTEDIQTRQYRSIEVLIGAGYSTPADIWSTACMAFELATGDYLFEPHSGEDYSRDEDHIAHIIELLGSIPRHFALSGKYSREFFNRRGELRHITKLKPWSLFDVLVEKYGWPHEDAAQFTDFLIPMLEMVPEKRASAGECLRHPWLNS
Chain of Calcium/calmodulin-dependent protein kinase type 1 (Homo sapiens) (Q14012 whole entry, looked up): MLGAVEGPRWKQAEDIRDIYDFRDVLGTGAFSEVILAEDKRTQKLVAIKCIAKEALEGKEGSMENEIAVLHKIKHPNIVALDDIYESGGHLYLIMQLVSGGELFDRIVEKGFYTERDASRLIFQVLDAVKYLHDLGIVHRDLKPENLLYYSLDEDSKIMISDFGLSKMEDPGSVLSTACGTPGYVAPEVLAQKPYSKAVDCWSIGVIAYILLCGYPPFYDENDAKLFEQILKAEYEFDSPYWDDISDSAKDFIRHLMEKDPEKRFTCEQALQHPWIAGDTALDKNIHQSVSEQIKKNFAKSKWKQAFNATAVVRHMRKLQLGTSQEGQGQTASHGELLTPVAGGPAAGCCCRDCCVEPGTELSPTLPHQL
Chain of Hepatocyte growth factor receptor (Homo sapiens) (P08581 whole entry): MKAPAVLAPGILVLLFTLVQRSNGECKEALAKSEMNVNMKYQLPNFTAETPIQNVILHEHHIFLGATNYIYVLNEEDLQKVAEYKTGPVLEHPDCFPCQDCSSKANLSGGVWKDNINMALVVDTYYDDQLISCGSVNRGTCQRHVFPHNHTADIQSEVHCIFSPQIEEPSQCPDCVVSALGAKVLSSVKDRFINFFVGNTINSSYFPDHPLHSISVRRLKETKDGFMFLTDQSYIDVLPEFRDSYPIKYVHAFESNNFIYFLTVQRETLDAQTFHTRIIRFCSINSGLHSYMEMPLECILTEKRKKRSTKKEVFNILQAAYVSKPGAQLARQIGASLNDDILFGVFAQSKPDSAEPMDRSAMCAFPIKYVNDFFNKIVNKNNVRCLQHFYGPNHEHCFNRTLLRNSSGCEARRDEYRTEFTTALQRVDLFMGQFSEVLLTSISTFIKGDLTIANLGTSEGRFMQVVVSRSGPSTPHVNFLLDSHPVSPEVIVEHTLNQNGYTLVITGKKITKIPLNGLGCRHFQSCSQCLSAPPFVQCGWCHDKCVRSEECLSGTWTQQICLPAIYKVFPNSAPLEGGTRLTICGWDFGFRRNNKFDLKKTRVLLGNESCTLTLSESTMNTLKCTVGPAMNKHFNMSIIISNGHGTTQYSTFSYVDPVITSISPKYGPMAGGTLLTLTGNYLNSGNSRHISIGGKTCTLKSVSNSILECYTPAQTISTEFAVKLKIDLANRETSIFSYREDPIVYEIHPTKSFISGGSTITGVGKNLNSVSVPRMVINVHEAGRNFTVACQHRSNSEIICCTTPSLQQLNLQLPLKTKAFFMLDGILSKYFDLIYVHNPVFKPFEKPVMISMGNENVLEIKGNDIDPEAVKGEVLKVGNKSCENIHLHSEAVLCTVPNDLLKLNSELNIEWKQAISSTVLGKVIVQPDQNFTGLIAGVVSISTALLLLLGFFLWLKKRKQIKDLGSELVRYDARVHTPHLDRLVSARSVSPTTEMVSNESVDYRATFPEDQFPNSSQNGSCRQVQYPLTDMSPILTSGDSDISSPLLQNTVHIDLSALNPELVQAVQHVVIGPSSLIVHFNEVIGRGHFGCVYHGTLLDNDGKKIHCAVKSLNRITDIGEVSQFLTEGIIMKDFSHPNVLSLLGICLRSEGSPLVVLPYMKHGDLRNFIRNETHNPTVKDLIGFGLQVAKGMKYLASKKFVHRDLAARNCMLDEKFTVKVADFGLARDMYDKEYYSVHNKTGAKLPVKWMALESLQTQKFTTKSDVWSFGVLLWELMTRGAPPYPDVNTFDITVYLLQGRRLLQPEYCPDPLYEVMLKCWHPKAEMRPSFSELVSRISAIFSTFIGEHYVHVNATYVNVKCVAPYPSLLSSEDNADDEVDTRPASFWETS

N#CC1(c2ccccn2)CCN(Cc2cc(C(=O)N3CCCC3)c(=O)n3ccccc23)CC1
inactive: residual activity [1] 100% | residual activity [2] 100% | residual activity [3] 86% | residual activity [4] 100% | residual activity [5] 89% | residual activity [6] 100% | residual activity [7] 100% | residual activity [8] 82% | residual activity [9] 87% | residual activity [10] 72% | residual activity [11] 100% | residual activity [12] 96% | residual activity [13] 88% | residual activity [14] 100% | residual activity [15] 82% | residual activity [16] 86% | residual activity [17] 95% | residual activity [18] 100% | residual activity [19] 87% | residual activity [20] 90% | residual activity [21] 95% | residual activity [22] 99% | residual activity [23] 54% | residual activity [24] 95% | residual activity [25] 80% | residual activity [26] 88% | residual activity [27] 84% | residual activity [28] 72% | inhibition [29] -8.64% | inhibition [30] 40.5% | inhibition [31] -5.76% | inhibition [32] 0.56%

N#CC1(c2ccccn2)CCN(Cc2cc(C(=O)O)c(=O)n3ccccc23)CC1 [MSD-M1PAM]
inactive: residual activity [1] 76% | residual activity [2] 98% | residual activity [3] 100% | residual activity [4] 100% | residual activity [5] 100% | residual activity [6] 71% | residual activity [7] 100% | residual activity [8] 93% | residual activity [9] 77% | residual activity [10] 100% | residual activity [11] 100% | residual activity [12] 82% | residual activity [13] 100% | residual activity [14] 100% | residual activity [15] 100% | residual activity [16] 100% | residual activity [17] 84% | residual activity [18] 95% | residual activity [19] 94% | residual activity [20] 80% | residual activity [21] 100% | residual activity [22] 100% | residual activity [23] 92% | residual activity [24] 88% | residual activity [25] 75% | residual activity [26] 100% | residual activity [27] 100% | residual activity [28] 93% | inhibition [29] -8.33% | inhibition [30] 24.7% | inhibition [31] 16.2% | inhibition [32] 4.74%
